Test results published in the supplement of paper PMC10307832.

How the values were obtained:
Test in all cases: relative viability (nuclei count vs DMSO), 5 days (fraction); higher = more cells survive
[1] = tested on: CAL-12T
Summary of the method: (§1)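 Lung cancer cell lines, seeded in 1536-well plates, were treated the following day by pin tool with a single drug or with five library-drug doses (not always all listed) in √10 steps on top of a fixed anchor-drug dose. Cells were fixed and nuclei stained in one step after 5 days, and nuclei were counted. Relative viability is the nuclei count for treated wells divided by that for vehicle wells, reported as medians of duplicate plates.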

[2] = tested on: COR-L 105
Summary of the method: as §1

[3] = tested on: ChaGo-K-1
Summary of the method: as §1

[4] = tested on: EMC-BAC-2
Summary of the method: as §1

[5] = tested on: EPLC-272H
Summary of the method: as §1

[6] = tested on: HCC-15
Summary of the method: as §1

[7] = tested on: HCC-78
Summary of the method: as §1

[8] = tested on: HOP-62
Summary of the method: as §1

[9] = tested on: LXF-289
Summary of the method: as §1

[10] = tested on: NCI-H1666
Summary of the method: as §1

[11] = tested on: NCI-H1755
Summary of the method: as §1

[12] = tested on: NCI-H1915
Summary of the method: as §1

[13] = tested on: NCI-H1975
Summary of the method: as §1

[14] = tested on: NCI-H2023
Summary of the method: as §1

[15] = tested on: NCI-H2085
Summary of the method: as §1

[16] = tested on: NCI-H2126
Summary of the method: as §1

[17] = tested on: NCI-H3122
Summary of the method: as §1

[18] = tested on: NCI-H322M
Summary of the method: as §1

[19] = tested on: NCI-H358
Summary of the method: as §1

[20] = tested on: NCI-H441
Summary of the method: as §1

[21] = tested on: UMC-11
Summary of the method: as §1

`COc1cc2nccc(Oc3ccc(NC(=O)Nc4cc(C)on4)c(Cl)c3)c2cc1OC` [Tivozanib] + CC(=O)Nc1cccc(-n2c(=O)n(C3CC3)c(=O)c3c(Nc4ccc(I)cc4F)n(C)c(=O)c(C)c32)c1 [Trametinib] (partner 0.02 µM) was tested, and the relative viability ([1]; first compound 0.005 µM) was 0.297, the relative viability ([1]; first compound 0.01581 µM) was 0.356 and the relative viability ([1]; first compound 0.05 µM) was 0.414. For the same compound, the relative viability ([1]; first compound 0.1581 µM) was 0.235, the relative viability ([1]; first compound 0.5 µM) was 0.408 and the relative viability ([2]; first compound 0.005 µM) was 0.417. It also gave a relative viability ([2]; first compound 0.01581 µM) of 0.451, a relative viability ([2]; first compound 0.05 µM) of 0.454 and a relative viability ([2]; first compound 0.1581 µM) of 0.482. The relative viability ([2]; first compound 0.5 µM) was 0.494, the relative viability ([3]; first compound 0.005 µM) was 0.853 and the relative viability ([3]; first compound 0.01581 µM) was 0.89. It also gave a relative viability ([3]; first compound 0.05 µM) of 0.875, a relative viability ([3]; first compound 0.1581 µM) of 0.859 and a relative viability ([3]; first compound 0.5 µM) of 0.868. For the same compound, the relative viability ([4]; first compound 0.005 µM) was 0.886, the relative viability ([4]; first compound 0.01581 µM) was 0.844 and the relative viability ([4]; first compound 0.05 µM) was 0.905. For the same compound, the relative viability ([4]; first compound 0.1581 µM) was 0.827, the relative viability ([4]; first compound 0.5 µM) was 0.952 and the relative viability ([5]; first compound 0.005 µM) was 0.243. For the same compound, the relative viability ([5]; first compound 0.01581 µM) was 0.277, the relative viability ([5]; first compound 0.05 µM) was 0.27 and the relative viability ([5]; first compound 0.1581 µM) was 0.235. It also gave a relative viability ([5]; first compound 0.5 µM) of 0.246, a relative viability ([6]; first compound 0.005 µM) of 0.391 and a relative viability ([6]; first compound 0.01581 µM) of 0.365. The relative viability ([6]; first compound 0.05 µM) was 0.364, the relative viability ([6]; first compound 0.1581 µM) was 0.422 and the relative viability ([6]; first compound 0.5 µM) was 0.395. The relative viability ([7]; first compound 0.005 µM) was 0.788, the relative viability ([7]; first compound 0.01581 µM) was 0.828 and the relative viability ([7]; first compound 0.05 µM) was 0.711. The relative viability ([7]; first compound 0.1581 µM) was 0.859, the relative viability ([7]; first compound 0.5 µM) was 0.537 and the relative viability ([8]; first compound 0.005 µM) was 0.343. It also gave a relative viability ([8]; first compound 0.01581 µM) of 0.398, a relative viability ([8]; first compound 0.05 µM) of 0.439 and a relative viability ([8]; first compound 0.1581 µM) of 0.377. For the same compound, the relative viability ([8]; first compound 0.5 µM) was 0.502, the relative viability ([9]; first compound 0.005 µM) was 0.698 and the relative viability ([9]; first compound 0.01581 µM) was 0.674. It also gave a relative viability ([9]; first compound 0.05 µM) of 0.629, a relative viability ([9]; first compound 0.1581 µM) of 0.646 and a relative viability ([9]; first compound 0.5 µM) of 0.668. It also gave a relative viability ([10]; first compound 0.005 µM) of 0.839, a relative viability ([10]; first compound 0.01581 µM) of 0.78 and a relative viability ([10]; first compound 0.05 µM) of 0.977. It also gave a relative viability ([10]; first compound 0.1581 µM) of 0.922, a relative viability ([10]; first compound 0.5 µM) of 0.862 and a relative viability ([11]; first compound 0.005 µM) of 0.664. For the same compound, the relative viability ([11]; first compound 0.01581 µM) was 0.75, the relative viability ([11]; first compound 0.05 µM) was 0.804 and the relative viability ([11]; first compound 0.1581 µM) was 0.739. For the same compound, the relative viability ([11]; first compound 0.5 µM) was 0.77, the relative viability ([12]; first compound 0.005 µM) was 0.318 and the relative viability ([12]; first compound 0.01581 µM) was 0.305. For the same compound, the relative viability ([12]; first compound 0.05 µM) was 0.3, the relative viability ([12]; first compound 0.1581 µM) was 0.273 and the relative viability ([12]; first compound 0.5 µM) was 0.304. The relative viability ([13]; first compound 0.005 µM) was 0.296, the relative viability ([13]; first compound 0.01581 µM) was 0.39 and the relative viability ([13]; first compound 0.05 µM) was 0.442. The relative viability ([13]; first compound 0.1581 µM) was 0.256, the relative viability ([13]; first compound 0.5 µM) was 0.312 and the relative viability ([14]; first compound 0.005 µM) was 0.526. For the same compound, the relative viability ([14]; first compound 0.01581 µM) was 0.603, the relative viability ([14]; first compound 0.05 µM) was 0.606 and the relative viability ([14]; first compound 0.1581 µM) was 0.61. The relative viability ([14]; first compound 0.5 µM) was 0.498, the relative viability ([15]; first compound 0.005 µM) was 0.51 and the relative viability ([15]; first compound 0.01581 µM) was 0.602. The relative viability ([15]; first compound 0.05 µM) was 0.543, the relative viability ([15]; first compound 0.1581 µM) was 0.437 and the relative viability ([15]; first compound 0.5 µM) was 0.511. The relative viability ([16]; first compound 0.005 µM) was 0.595, the relative viability ([16]; first compound 0.01581 µM) was 0.556 and the relative viability ([16]; first compound 0.05 µM) was 0.567. The relative viability ([16]; first compound 0.1581 µM) was 0.444, the relative viability ([16]; first compound 0.5 µM) was 0.555 and the relative viability ([17]; first compound 0.005 µM) was 0.197. It also gave a relative viability ([17]; first compound 0.01581 µM) of 0.213, a relative viability ([17]; first compound 0.05 µM) of 0.229 and a relative viability ([17]; first compound 0.1581 µM) of 0.235. The relative viability ([17]; first compound 0.5 µM) was 0.321, the relative viability ([18]; first compound 0.005 µM) was 0.509 and the relative viability ([18]; first compound 0.01581 µM) was 0.602. For the same compound, the relative viability ([18]; first compound 0.05 µM) was 0.55, the relative viability ([18]; first compound 0.1581 µM) was 0.517 and the relative viability ([18]; first compound 0.5 µM) was 0.577. It also gave a relative viability ([19]; first compound 0.005 µM) of 0.124, a relative viability ([19]; first compound 0.01581 µM) of 0.153 and a relative viability ([19]; first compound 0.05 µM) of 0.161. For the same compound, the relative viability ([19]; first compound 0.1581 µM) was 0.108, the relative viability ([19]; first compound 0.5 µM) was 0.144 and the relative viability ([20]; first compound 0.005 µM) was 0.405. It also gave a relative viability ([20]; first compound 0.01581 µM) of 0.489, a relative viability ([20]; first compound 0.05 µM) of 0.551 and a relative viability ([20]; first compound 0.1581 µM) of 0.367. It also gave a relative viability ([20]; first compound 0.5 µM) of 0.433, a relative viability ([21]; first compound 0.005 µM) of 0.66 and a relative viability ([21]; first compound 0.01581 µM) of 0.67. It also gave a relative viability ([21]; first compound 0.05 µM) of 0.754, a relative viability ([21]; first compound 0.1581 µM) of 0.533 and a relative viability ([21]; first compound 0.5 µM) of 0.529.
